Source: patent publication US20230158152A1, “PROTEOLYSIS REGULATOR AND METHOD FOR USING SAME” (MEDSHINE DISCOVERY INC., priority 2020, published 2023)

Tested on: human lung cancer NCI-H2228 cells subcutaneous xenograft tumor
Experiment: In vivo pharmacodynamic study in subcutaneous xenograft tumor NOD SCID mouse model of human lung cancer NCI-H2228 cells
Design: species or system NOD SCID mice
Settings: 50 mg/kg subcutaneous injection once a day
Method: Human lung cancer cell NCI-H2228 (ATCC® CRL-5935™) was cultured in vitro in an adherent monolayer in RPMI 1640 medium supplemented with 10% fetal bovine serum, 100 U/mL penicillin and 100 μg/mL streptomycin in an incubator at 37° C. and 5% CO2. Cells were passaged by routine digestion with trypsin-EDTA twice a week. When the cell saturation was 80%-90% and the number met the requirement, the cells are collected, counted, and inoculated.
NOD SCID mice, female, 6-8 weeks old, weighing 18-22 grams.
0.2 mL (10×10^6 cells) of NCI-H2228 cells (with matrigel, v/v 1:1) were subcutaneously inoculated into the right back of each mouse. The administration by group was started when the average tumor volume reached 171 mm^3. One administration cycle comprised seven days, with administration once a day. The assay compounds were administered by subcutaneous injection for a total of four cycles. The subcutaneous injection doses of the assay compounds WX001 and WX002 were both 50 mg/kg. Tumor diameter was measured twice a week with a vernier caliper, and tumor volume was measured in cubic millimeters and calculated by the following formula: V=0.5a×b^2, where a and b are the long and short diameters of the tumor, respectively. The tumor-inhibitory efficacy of the assay compounds was evaluated by using TGI (%). TGI (%) reflects a tumor growth inhibition rate. TGI (%)=[1−(Average tumor volume at the end of administration of a treatment group−Average tumor volume at the beginning of administration of the treatment group)/(Average tumor volume at the end of treatment of a vehicle control group−Average tumor volume at the beginning of treatment of the vehicle control group)]×100%.

Structure (SMILES): Cc1cc(Nc2ncc(Cl)c(Nc3ccccc3S(=O)(=O)C(C)C)n2)c(OC(C)C)cc1C1CCN(CC(=O)NCCOc2ccc3occ(C4CCC(=O)NC4=O)c3c2)CC1 (stereo not drawn) [WX001]
- Tumor volume (Day 1) (Day 1): 172 ± 12 mm^3
- TGI (Day 28) (Day 28): 111.22%
- Tumor volume (Day 28) (Day 28): 102 ± 5 mm^3
